Reference: ChEMBL document CHEMBL6182902, “Design, synthesis, and discovery of cinnamoyl amide derivatives as potent NagZ inhibitors with antibacterial activity” (Eur J Med Chem, 2025)
Active and inactive are the calls of the source. No cut-off for these calls is given here.

How the values were obtained:
Escherichia coli = assay: Inhibition of recombinant N-terminal His-tagged Escherichia coli BL21 NagZ extracted from Escherichia coli BL21 using pNP-GlcNAc as substrate at 100 uM by absorbance based assay relative to control
[1] = Inhibition of recombinant N-terminal His-tagged Escherichia coli BL21 NagZ extracted from Escherichia coli BL21 using pNP-GlcNAc as substrate by absorbance based assay
[2] = Inhibition of recombinant N-terminal His-tagged Escherichia coli BL21 NagZ extracted from Escherichia coli BL21 using different concentrations of substrate pNP-GlcNAc by 4-nitrophenolate ion release based spectrophotometric analysis
Pseudomonas aeruginosa [3] = assay: Antibacterial activity against Pseudomonas aeruginosa ATCC 27853 infected in female KM mouse assessed as epithelial tissue proliferation in skin at 20 mg/kg, iv measured after 3 days; assay type: functional, organism-based; details: time 3.0 day
Pseudomonas aeruginosa [4] = assay: Antibacterial activity against Pseudomonas aeruginosa ATCC 27853 infected in female KM mouse assessed as wound healing rate in skin at 20 mg/kg, iv measured after 3 days (reference value: 36.2 %); assay type: functional; details: time 3 day
Pseudomonas aeruginosa [5] = assay: Antibacterial activity against Pseudomonas aeruginosa ATCC 27853 infected in female KM mouse assessed as increase in wound contraction in skin at 40 mg/kg, iv measured after 3 days; assay type: functional, organism-based; details: time 3.0 day
Pseudomonas aeruginosa [6] = assay: Antibacterial activity against Pseudomonas aeruginosa ATCC 27853 infected in female KM mouse assessed as epithelial tissue proliferation in skin at 40 mg/kg, iv measured after 3 days; assay type: functional, organism-based; details: time 3.0 day
Pseudomonas aeruginosa [7] = assay: Antibacterial activity against Pseudomonas aeruginosa ATCC 27853 infected in female KM mouse assessed as wound healing rate in skin at 40 mg/kg, iv measured after 3 days (reference value: 36.2 %); assay type: functional; details: time 3 day

Compound	inhibition (Escherichia coli)	further results
O=C(/C=C/c1ccc(Cl)cc1)N[C@@H](Cc1ccc(I)cc1)C(=O)O	75.7%	IC50 [1]: 182 µM; Ki [2]: 56.1 µM
O=C(/C=C/c1cc(F)c(F)c(F)c1)N[C@@H](Cc1ccc(I)cc1)C(=O)O	60.3%	
O=C(/C=C/c1ccc2ccccc2c1)N[C@@H](Cc1ccc(I)cc1)C(=O)O	87%	IC50 [1]: 10.8 µM; Ki [2]: 7.4 µM
O=C(/C=C/c1ccc([N+](=O)[O-])o1)N[C@@H](Cc1ccc(I)cc1)C(=O)O	48.4%	
O=C(/C=C/c1ccc(Cl)cc1)N[C@H](Cc1ccc(Br)cc1)C(=O)O	49.8%	
CC(=O)N[C@H]1/C(=N/OC(=O)Nc2ccccc2)O[C@H](CO)[C@@H](O)[C@@H]1O [PUGNAC]		Ki [1]: 0.075 µM
O=C(/C=C/c1ccc(Cl)c(Cl)c1)N[C@H](Cc1ccc(Br)cc1)C(=O)O	87%	IC50 [1]: 6.3 µM; Ki [2]: 3.5 µM
O=C(/C=C/c1c(Cl)cccc1Cl)N[C@@H](Cc1ccc(I)cc1)C(=O)O	76.9%	IC50 [1]: 84.9 µM; Ki [2]: 22.2 µM
O=C(O[C@@H]1Cc2c(O)cc(O)cc2O[C@@H]1c1ccc(O)c(O)c1)c1cc(O)c(O)c(O)c1 [EPICATECHIN GALLATE]	45.1%	IC50 [1]: 70.4 µM
O=C(O)[C@H](Cc1ccc(I)cc1)NC(=O)[C@H]1C[C@@H]1c1ccccc1	29.1%	
O=C(/C=C/c1ccc(F)cc1)N[C@@H](Cc1ccc(I)cc1)C(=O)O	34.3%	
COC(=O)C(Cc1ccc(Br)cc1)NC(=O)/C=C/c1ccc(F)cc1 (racemic)	7.2%	
COC(=O)[C@H](Cc1ccccc1)NC(=O)/C=C/c1ccc(Cl)c(Cl)c1	inactive	
O=C(O[C@@H]1Cc2c(O)cc(O)cc2O[C@H]1c1cc(O)c(O)c(O)c1)c1cc(O)c(O)c(O)c1 [GALLOCATECHIN GALLATE]	54.9%	IC50 [1]: 64.3 µM
O=C(/C=C/c1ccc(Cl)c(Cl)c1)NC(Cc1ccc(Cl)cc1)C(=O)O (racemic)	77.1%	
C=CCc1ccc(O)c(-c2cc(CC=C)ccc2O)c1 [MAGNOLOL]	58.9%	IC50 [1]: 88.3 µM
CC1=C(O)C(=O)C=C2C1=CC=C1[C@@]2(C)CC[C@@]2(C)[C@@H]3C[C@](C)(C(=O)O)CC[C@]3(C)CC[C@]12C [CELASTROL]	50%	IC50 [1]: 62.8 µM
CC1(C)[C@@H](O)CC[C@]2(C)[C@H]3C(=O)C=C4[C@H]5C[C@@](C)(C(=O)O)CC[C@]5(C)CC[C@@]4(C)[C@]3(C)CC[C@@H]12 [18alpha-GLYCYRRHETINIC ACID]	69.6%	IC50 [1]: 75.5 µM
O=C(/C=C/c1ccc(O)c(O)c1)O[C@H](Cc1ccc(O)c(O)c1)C(=O)O [ROSMARINIC ACID]	64.3%	IC50 [1]: 56.1 µM

Compound	inhibition (Escherichia coli)	further results
O=C(/C=C/c1ccc(Cl)cc1)NC(Cc1ccc(Br)cc1)C(=O)O (racemic)	37.2%	
O=C(C#Cc1ccccc1)N[C@@H](Cc1ccc(I)cc1)C(=O)O	29.7%	
O=C(/C=C/c1ccc(Cl)c(Cl)c1)N[C@@H](Cc1ccccc1)C(=O)O	50.4%	
COC(=O)[C@H](Cc1ccccc1)NC(=O)/C=C/c1ccc(Br)cc1	inactive	
O=C(/C=C/c1ccc(Cl)c(Cl)c1)NC(Cc1ccc(Br)cc1)C(=O)O (racemic)	86.1%	IC50 [1]: 36.5 µM; Ki [2]: 22.4 µM
COC(=O)[C@H](Cc1ccc(I)cc1)NC(=O)/C=C/c1ccc(F)cc1	14%	
O=C(/C=C/c1ccc(O)c(O)c1)N[C@@H](Cc1ccc(I)cc1)C(=O)O	66.5%	
O=C(CCc1ccc(Cl)c(Cl)c1)N[C@@H](Cc1ccc(I)cc1)C(=O)O	73.5%	
O=C(/C=C/c1ccco1)N[C@@H](Cc1ccc(I)cc1)C(=O)O	35.8%	
O=C(O[C@@H]1Cc2c(O)cc(O)cc2O[C@@H]1c1cc(O)c(O)c(O)c1)c1cc(O)c(O)c(O)c1 [EPIGALOCATECHIN GALLATE]	51.4%	IC50 [1]: 61.2 µM
O=C(/C=C/c1ccccc1)N[C@@H](Cc1ccc(I)cc1)C(=O)O	20.2%	
O=C(/C=C/c1cccc([N+](=O)[O-])c1)N[C@@H](Cc1ccc(I)cc1)C(=O)O	42.1%	
CC1(C)CC[C@]2(C(=O)O)CC[C@]3(C)C(=CC[C@@H]4[C@@]5(C)CC[C@H](O)[C@@](C)(CO)[C@@H]5CC[C@]43C)[C@@H]2C1 [HEDERAGENIN]	29.4%	IC50 [1]: 101 µM
COC(=O)[C@H](Cc1ccccc1)NC(=O)/C=C/c1cccc(Cl)c1	11.6%	
O=C(N[C@@H](Cc1ccc(I)cc1)C(=O)O)/C(=C/c1ccccc1)c1ccccc1	86.8%	IC50 [1]: 39.6 µM; Ki [2]: 15.5 µM
O=C(/C=C/c1ccc(Br)cc1)N[C@@H](Cc1ccc(I)cc1)C(=O)O	81.2%	IC50 [1]: 119 µM; Ki [2]: 24.2 µM
O=C(/C=C/c1ccccc1)N[C@H](Cc1ccc(Br)cc1)C(=O)O	15.9%	
O=C(/C=C\c1ccccc1)N[C@@H](Cc1ccc(I)cc1)C(=O)O	12%	
O=C(/C=C/c1ccc(F)c(F)c1)N[C@@H](Cc1ccc(I)cc1)C(=O)O	30.5%	

Compound	inhibition (Escherichia coli)	further results
O=C(/C=C/c1ccc(F)cc1)NC(Cc1ccc(Br)cc1)C(=O)O (racemic)	17.5%	
O=C(/C=C/c1ccc(F)c(Cl)c1)N[C@@H](Cc1ccc(I)cc1)C(=O)O	72%	
O=C(/C=C/c1ccc(Br)cc1)N[C@H](Cc1ccc(Br)cc1)C(=O)O	46.5%	
COC(=O)[C@H](Cc1ccc(I)cc1)NC(=O)/C=C/c1ccc(Cl)c(Cl)c1	inactive	
C[C@@H](O)[C@H]1C(=O)N2C(C(=O)O)=C(SCCNC=N)C[C@H]12 [IMIPENEM ANHYDROUS]		Activity (Pseudomonas aeruginosa [3]): Active; Activity (Pseudomonas aeruginosa [4]): 54.4%
O=C(/C=C/c1ccc(I)cc1)N[C@H](Cc1ccc(Br)cc1)C(=O)O	76.1%	
O=C(/C=C/c1ccc(Cl)c(Cl)c1)N[C@@H](Cc1c[nH]c2ccccc12)C(=O)O	68.2%	
O=C(CCc1ccccc1)N[C@@H](Cc1ccc(I)cc1)C(=O)O	21.5%	
O=C(/C=C/c1ccc(O)cc1)N[C@@H](Cc1ccc(I)cc1)C(=O)O	46.2%	
O=C(/C=C/c1ccc(F)c(Cl)c1)N[C@H](Cc1ccc(Br)cc1)C(=O)O	71.6%	
COC(=O)C(Cc1ccc(Br)cc1)NC(=O)/C=C/c1ccc(Cl)cc1 (racemic)	inactive	
O=C(/C=C/c1ccc(Br)cc1)N[C@@H](Cc1ccccc1)C(=O)O	16.9%	
O=C(/C=C/c1ccc([N+](=O)[O-])cc1)N[C@@H](Cc1ccc(I)cc1)C(=O)O	37.2%	
O=C(/C=C/c1ccc(I)cc1)N[C@@H](Cc1ccc(I)cc1)C(=O)O	85.5%	IC50 [1]: 110 µM; Ki [2]: 14.3 µM
O=C(/C=C/c1ccc([N+](=O)[O-])o1)N[C@H](Cc1ccc(Br)cc1)C(=O)O	38.2%	
CC(C)(O/N=C(\C(=O)N[C@@H]1C(=O)N2C(C(=O)[O-])=C(C[n+]3ccccc3)CS[C@H]12)c1csc(N)n1)C(=O)O [CEFTAZIDIME]		Activity (Pseudomonas aeruginosa [5]): Active; Activity Higher Than Imipenem; Activity (Pseudomonas aeruginosa [6]): Active; Activity (Pseudomonas aeruginosa [7]): 62.2%
O=C(/C=C/c1c[nH]c2ccccc12)N[C@@H](Cc1ccc(I)cc1)C(=O)O	78.8%	IC50 [1]: 39.6 µM; Ki [2]: 15.5 µM
COC(=O)C(Cc1ccc(Br)cc1)NC(=O)/C=C/c1ccc(Cl)c(Cl)c1 (racemic)	inactive	
O=C(/C=C/c1cccc(Cl)c1)N[C@@H](Cc1ccccc1)C(=O)O	19.9%	
